For the test, the target named is T1, mycL-Hmg2-GFP (1myc-Hmg2-GFP; Hmg2 transmembrane region) (Saccharomyces cerevisiae, UniProt P12684).
T1 sequence (P12684 1-535 limits assumed): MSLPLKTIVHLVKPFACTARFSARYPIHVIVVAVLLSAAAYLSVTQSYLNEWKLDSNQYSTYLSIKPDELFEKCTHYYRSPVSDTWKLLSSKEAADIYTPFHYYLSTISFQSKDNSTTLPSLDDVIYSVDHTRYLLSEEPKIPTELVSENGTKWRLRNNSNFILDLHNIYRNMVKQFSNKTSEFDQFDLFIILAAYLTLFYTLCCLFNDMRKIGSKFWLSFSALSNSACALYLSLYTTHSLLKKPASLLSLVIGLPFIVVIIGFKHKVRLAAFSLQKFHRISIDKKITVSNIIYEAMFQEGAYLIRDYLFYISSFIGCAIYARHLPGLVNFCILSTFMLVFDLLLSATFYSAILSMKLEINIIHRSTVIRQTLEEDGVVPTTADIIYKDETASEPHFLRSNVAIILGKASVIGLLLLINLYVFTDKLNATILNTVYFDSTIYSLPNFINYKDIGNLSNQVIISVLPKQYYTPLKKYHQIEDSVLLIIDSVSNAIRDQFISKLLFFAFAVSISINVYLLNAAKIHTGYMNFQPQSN
The test can be described thus: limited trypsin proteolysis of microsomes, anti-myc immunoblot. The class given is biochemical.

Consider `CC(C)=CCC/C(C)=C/CC/C(C)=C/CC/C(C)=C/COP(=O)(O)OP(=O)(O)O` [GGPP, geranylgeranyl pyrophosphate], for which the EC50 was less than 0.2 µM.

For the origin of these results see publication doi:10.1101/177311v3 (biorxiv, 2018).
